Test results published in paper PMC10221175.
Values belong to the molecule of their own block, whether it stands above or below them.

Key:
[1] = system: 5′-FAM-AT11-L0-TAMRA-3′ (DNA, G4) TGGTGGTGGTTGTTGGGTGGTGGTGGT; assay: FRET melting; settings: 65 mM KCl, 20 mM potassium phosphate, pH 6.9, 0.2 µM DNA
[2] = system: 5′-Cy5-AT11-L0 (DNA, G4) TGGTGGTGGTTGTTGGGTGGTGGTGGT; assay: fluorescence titration (Cy5 quenching), Hill model; settings: 65 mM KCl, 20 mM potassium phosphate; pH 6.9; 1 µM DNA; apparent
[3] = system: 5′-Cy5-AT11-L0 (DNA, G4) TGGTGGTGGTTGTTGGGTGGTGGTGGT; assay: fluorescence titration (Cy5 quenching), two-site model; settings: 65 mM KCl, 20 mM potassium phosphate; pH 6.9; 1 µM DNA; site 1 of 2; apparent
[4] = molecular target: T1, nucleolin RBD1,2 (NCL RBD1,2) (UniProt P19338 307-466); assay: fluorescence titration (Cy5 quenching); ligand PhenDC3; two-site model, KD1; aptamer pre-annealed in 20 mM potassium phosphate pH 6.9, 65 mM KCl (95 C 10 min, ice 10 min); titration temperature not given in the material; settings: protein: recombinant; label: 5'-Cy5; parallel G4, pre-folded in K+
[5] = molecular target: T1, nucleolin RBD1,2 (NCL RBD1,2); assay: fluorescence titration (Cy5 quenching); no ligand; two-site model, KD1; aptamer pre-annealed in 20 mM potassium phosphate pH 6.9, 65 mM KCl (95 C 10 min, ice 10 min); titration temperature not given in the material; settings: protein: recombinant; label: 5'-Cy5; parallel G4, pre-folded in K+
[6] = molecular target: T1, nucleolin RBD1,2 (NCL RBD1,2); assay: fluorescence titration (Cy5 quenching); ligand C8; two-site model, KD1; aptamer pre-annealed in 20 mM potassium phosphate pH 6.9, 65 mM KCl (95 C 10 min, ice 10 min); titration temperature not given in the material; settings: protein: recombinant; label: 5'-Cy5; parallel G4, pre-folded in K+

T1 sequence (P19338 307-466): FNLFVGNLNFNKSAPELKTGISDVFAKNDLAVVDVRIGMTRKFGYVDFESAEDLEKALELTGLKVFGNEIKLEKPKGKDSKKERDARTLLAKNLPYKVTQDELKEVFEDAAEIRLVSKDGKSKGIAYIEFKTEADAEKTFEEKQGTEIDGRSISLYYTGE

ΔTm ([1]; 1 µM compound (5 eq)): 20.3 °C
Molecule: CN(C)c1ccc(Nc2c3ccc(NC(=O)CCN4CCCC4)cc3nc3cc(NC(=O)CCN4CCCC4)ccc23)cc1

KD [2]: 22.1 nM
ΔTm ([1]; 1 µM compound (5 eq)): 19.6 °C
Molecule: CN(C)c1ccc2cc3ccc(N(C)C)cc3[n+](CCCCCCCCNC(=O)c3ccc(I)cc3)c2c1

ΔTm ([1]; 0.2 µM compound (1 eq)): 0.1 °C
Molecule: C[C@@H]1C[C@H]2[C@@H]3CCC4=CC(=O)C=C[C@]4(C)[C@@]3(F)[C@@H](O)C[C@]2(C)[C@@]1(O)C(=O)CO

ΔTm ([1]; 1 µM compound (5 eq)): 26.9 °C
Molecule: NCCOc1cc(C(=O)Nc2cc(OCCN)c3ccccc3n2)nc(C(=O)Nc2cc(OCCN)c3ccccc3n2)c1

The next lines start with the molecule.

Molecule: C[n+]1cc(NC(=O)c2ccc3ccc4ccc(C(=O)Nc5cc6ccccc6[n+](C)c5)nc4c3n2)cc2ccccc21
KD1 [3]: 329 pM
ΔTm ([1]; 1 µM compound (5 eq)): > 30 °C

Molecule: C[n+]1ccc(-c2c3nc(c(-c4cc[n+](C)cc4)c4ccc([nH]4)c(-c4cc[n+](C)cc4)c4nc(c(-c5cc[n+](C)cc5)c5ccc2[nH]5)C=C4)C=C3)cc1
ΔTm ([1]; 1 µM compound (5 eq)): 28 °C

Molecule: TGGTGGTGGTTGTTGGGTGGTGGTGGT (structured_DNA) [5'-Cy5-AT11-L0]
Kd [4]: 0.02 nM
Kd [5]: 0.012 nM
Kd [6]: 0.024 nM
